# In patent US11753622B2, “Medium supplement to increase the efficiency of oocyte maturation and embryo culture in vitro” (The Curators of the University of Missouri, priority 2016, dated 2023):
# Marks after values point to notes of the source that are not given here.
# Legend:
# [1] = system: oocyte meiotic maturation; experiment: Kinase inhibitors in FGF2, LIF and IGF-1 supplemented medium, oocyte meiotic maturation; assay type: cell-based, porcine; settings: PD173074 10 μM, JAK inhibitor I 6 μM, OSI-906 10 μM, PD0325901 10 μM
# Excerpt: FIG. 6. Supplementation of FGF2, LIF and IGF-1 (FLI) regulates the changes of MAPK1/3 activation in cumulus cells (CCs) during IVM. […] Each CC sample was pooled from 50 cumulus oocyte complexes (COCs). This experiment was replicated four times. Asterisk denotes a significant difference between control and treatment, P<0.05. […] The experiments were replicated four times with 1208 oocytes. Different letters denote significant differences, P<0.05.
# porcine oocytes = experiment: Porcine oocyte in vitro maturation (IVM) in cytokine-supplemented medium, then IVF and culture to blastocyst; assay type: cell-based; settings: for efficiency of producing nuclear matured (MII) oocytes / oocyte developmental competence (ability of zygotes to form blastocysts after IVF): single cytokine in IVM medium; for efficiency of producing nuclear matured (MII) oocytes: 42 hr, versus control; for oocyte developmental competence (ability of zygotes to form blastocysts after IVF): 6 days culture
# Experimental: The individual effects of FGF2, LIF, and IGF-1 on maturation of oocytes derived from pre-pubertal pre-pubertal gilts after commercial slaughter were examined after each had been added to an otherwise standard, chemically-defined medium comprised of TCM 199 supplemented with 10 ng/ml EGF, 0.5 μg/ml LH, 0.5 μg/ml FSH, 3.05 mM glucose, 0.91 mM sodium pyruvate, 0.57 mM cysteine, 10 ng/mL gentamicin, and 0.1% polyvinyl alcohol (PVA). After 42 hr in the oocyte maturation medium with the single cytokine addition, oocytes were in vitro fertilized and the resulting zygotes were cultured under standard in vitro culture conditions for 6 days. […] (FIG. 2). Optimal concentrations of FGF2 (40 ng/ml) and LIF (20 ng/ml) were added in combination to the standard IVM medium. The combination of FGF2 and LIF improved nuclear maturation beyond that achieved with the single factors in Example 1 (Table 1). […] The effects of adding the IGF-1 at the optimal concentration of 20 ng/ml in combination with the other two cytokines to the IVM medium was then examined. The combination of all three cytokines (FGF2, LIF, and IGF-1) increased oocyte nuclear maturation to 89%, as compared to 55% in controls (FIG. 5 and Table 2, column 4). After IVF, zygotes from oocytes cultured in medium comprising FGF2, LIF, and IGF-1 advanced to the blastocyst stage more efficiently than controls (49.7% versus 38%). […] Oocytes derived from medium comprising FGF2, LIF, and IGF-1 also provided improved production of blastocysts following somatic cell nuclear transfer (SCNT), which requires removal of nuclear material from the egg followed by fusion of the enucleated oocyte with a somatic donor cell (FIG. 5). [table]
# [2] = Table 1, after IVF, means ± SEM
# [3] = Table 1, porcine IVM medium, FGF2 40 ng/ml, LIF 20 ng/ml, means ± SEM
# [4] = Table 2, IVF embryos cultured in MU1-PZM six days, means ± SEM
Compound,oocyte meiotic maturation [1],efficiency of producing nuclear matured (MII) oocytes (porcine oocytes),oocyte developmental competence (ability of zygotes to form blastocysts after IVF) (porcine oocytes),further results
C[C@]1(O)C[C@@H](c2nc(-c3ccc4ccc(-c5ccccc5)nc4c3)c3c(N)nccn32)C1 [OSI-906],more moderate declines,,,
CCN(CC)CCCCNc1ncc2cc(-c3cc(OC)cc(OC)c3)c(NC(=O)NC(C)(C)C)nc2n1 [PD173074],more moderate declines,,,
O=C(NOC[C@H](O)CO)c1ccc(F)c(F)c1Nc1ccc(I)cc1F [PD0325901],almost complete block of meiotic maturation,,,
JAK inhibitor I,more moderate declines,,,
fibroblast growth factor 2 [FGF2],,improved,none of the cytokines improved,Blastocysts/Oocyte (%) (porcine oocytes; [2]): 25.6 ± 3.6^ab %; Blastocysts/Zygote (%) (porcine oocytes; [2]): 35.1 ± 4.9^a %; Nuclear Maturation (%) (porcine oocytes; [3]): 73.2 ± 3.4^a %
insulin-like growth factor 1 [IGF-1],,improved,none of the cytokines improved,"Blastocysts/Oocyte (%) (porcine oocytes; [4]): 33.6 ± 5.5^b %; Blastocysts/Zygote (%) (porcine oocytes; [4]): 44.7 ± 6.7^ab %; Nuclear Maturation (%) (porcine oocytes; Table 2, TCM-199 maturation medium, FGF2 40, LIF 20, IGF-1 20 ng/ml, means ± SEM): 74.8 ± 3.6^b %; Total blastocyst cell number (porcine oocytes; Table 2, day 6 blastocysts, means ± SEM): 34.7 ± 7.8^b"
leukemia inhibitory factor [LIF],,improved,none of the cytokines improved,Blastocysts/Oocyte (%) (porcine oocytes; [2]): 19.6 ± 3.6^ab %; Blastocysts/Zygote (%) (porcine oocytes; [2]): 25.4 ± 4.0^b %; Nuclear Maturation (%) (porcine oocytes; [3]): 75.7 ± 3.1^a %
